In patent US20070249670A1, “Glycogen Phosphorylase Inhibitor Compounds and Pharmaceutical Compositions Thereof” (SMITHKLINE BEECHAM CORPORATION, priority 2004, published 2007):
Where a name gives a salt, the structure may show the parent alone.

Each compound was assayed against T1, human liver glycogen phosphorylase a (HLGPa) (Homo sapiens, UniProt P06737) (assay: Human liver glycogen phosphorylase a enzymatic activity assay (coupled, fluorescent resorufin readout, with and without 10 mM glucose)). Conditions: human liver glycogen phosphorylase a enzymatic activity assay.
T1 construct: creating a full-length cDNA fused at the 5′ end to codons for methionine-glycine-alanine-histidine; 6xHis tag (leader Met-Gly-Ala-His6-Gly-Gly) (N); made in house; host or cells: E. coli (bacterial expression plasmid pTXK1007LTev)
T1 sequence (P06737 2-847 limits assumed): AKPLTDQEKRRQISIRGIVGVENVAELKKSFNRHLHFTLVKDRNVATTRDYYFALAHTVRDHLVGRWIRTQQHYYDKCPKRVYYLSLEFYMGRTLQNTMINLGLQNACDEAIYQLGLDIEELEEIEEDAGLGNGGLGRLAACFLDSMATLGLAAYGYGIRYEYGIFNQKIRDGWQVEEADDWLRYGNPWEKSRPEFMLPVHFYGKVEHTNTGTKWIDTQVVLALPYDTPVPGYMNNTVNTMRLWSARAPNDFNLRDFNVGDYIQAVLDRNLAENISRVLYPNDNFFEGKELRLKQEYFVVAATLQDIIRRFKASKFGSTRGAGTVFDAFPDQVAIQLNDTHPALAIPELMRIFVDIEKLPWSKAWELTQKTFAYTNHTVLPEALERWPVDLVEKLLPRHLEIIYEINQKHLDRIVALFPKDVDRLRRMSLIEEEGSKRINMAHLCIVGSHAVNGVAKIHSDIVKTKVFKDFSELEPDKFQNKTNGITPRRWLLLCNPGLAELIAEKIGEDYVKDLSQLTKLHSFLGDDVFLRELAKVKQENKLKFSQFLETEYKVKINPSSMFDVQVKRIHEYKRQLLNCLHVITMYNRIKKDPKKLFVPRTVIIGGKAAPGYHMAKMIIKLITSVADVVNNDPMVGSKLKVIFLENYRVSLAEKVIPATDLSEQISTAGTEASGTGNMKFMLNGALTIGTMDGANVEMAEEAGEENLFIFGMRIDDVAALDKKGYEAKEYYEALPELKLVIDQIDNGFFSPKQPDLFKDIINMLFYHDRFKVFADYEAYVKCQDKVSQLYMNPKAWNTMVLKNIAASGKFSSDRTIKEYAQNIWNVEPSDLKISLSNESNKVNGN
Type: biochemical

In order of falling IC50:
1. CCc1cccc(CC)c1NC(=O)Nc1ccccc1C(=O)N[C@@H](CC(=O)O)C(=O)O [Example 83, N-[2-({[(2,6-diethylphenyl)amino]carbonyl}amino)benzoyl]-L-aspartic acid]  34.1 µM
2. Cc1cccc(Cl)c1NC(=O)Nc1ccccc1C(=O)N[C@@H](CC(=O)O)C(=O)O [Example 87, N-[2-({[(2-chloro-6-methylphenyl)amino]carbonyl}amino)benzoyl]-L-aspartic acid]  24.5 µM
3. O=C(O)C[C@H](NC(=O)c1cc2ccccc2cc1NC(=O)Nc1ccccc1Br)C(=O)O [Example 90, N-[3-({[(2-bromophenyl)amino]carbonyl}amino)-2-naphthoyl]-L-aspartic acid]  22.9 µM
4. CC[C@H](C)[C@H](NC(=O)c1cc(OC)c(OC)cc1NC(=O)Nc1c(C)cccc1Cl)C(=O)O [Example 71, N-[2-({[(2-chloro-6-methylphenyl)amino]carbonyl}amino)-4,5-dimethoxybenzoyl]-L-isoleucine]  22.3 µM
5. COc1cc(NC(=O)Nc2c(C)cccc2Cl)c(C(=O)N[C@@H](CC(=O)O)C(=O)O)cc1OC [Example 67, N-[2-({[(2-chloro-6-methylphenyl)amino]carbonyl}amino)-4,5-dimethoxybenzoyl]-L-aspartic acid]  19.8 µM
6. Cc1cccc(C)c1NC(=O)Nc1cc(F)c(F)cc1C(=O)N[C@@H](CC(C)C)C(=O)O [Example 79, N-[2-({[(2,6-dimethylphenyl)amino]carbonyl}amino)-4,5-difluorobenzoyl]-L-leucine]  18.7 µM
7. Cc1cccc(Cl)c1NC(=O)Nc1ccc(I)cc1C(=O)N[C@@H](CC(=O)O)C(=O)O [Example 89, N-[2-({[(2-chloro-6-methylphenyl)amino]carbonyl}amino)-5-iodobenzoyl]-L-aspartic acid]  17.4 µM
8. Cc1cccc(C)c1NC(=O)Nc1cc(F)c(F)cc1C(=O)N[C@@H](Cc1ccccc1)C(=O)O [Example 81, N-[2-({[(2,6-dimethylphenyl)amino]carbonyl}amino)-4,5-difluorobenzoyl]-L-phenylalanine]  14.7 µM
9. COc1cc(NC(=O)Nc2c(C)cccc2Cl)c(C(=O)N[C@@H](CC(C)C)C(=O)O)cc1OC [Example 69, N-[2-({[(2-chloro-6-methylphenyl)amino]carbonyl}amino)-4,5-dimethoxybenzoyl]-L-leucine]  13.8 µM
10. COc1cc(NC(=O)Nc2c(C)cccc2Cl)c(C(=O)N[C@@H](Cc2ccccc2)C(=O)O)cc1OC [Example 73, N-[2-({[(2-chloro-6-methylphenyl)amino]carbonyl}amino)-4,5-dimethoxybenzoyl]-L-phenylalanine]  11.6 µM
11. Cc1cccc(Cl)c1NC(=O)Nc1cc(F)c(F)cc1C(=O)N[C@@H](Cc1ccccc1)C(=O)O [Example 72, N-[2-({[(2-chloro-6-methylphenyl)amino]carbonyl}amino)-4,5-difluorobenzoyl]-L-phenylalanine]  10.9 µM
12. COc1cc(NC(=O)Nc2c(C)cccc2C)c(C(=O)N[C@@H](Cc2c[nH]c3ccccc23)C(=O)O)cc1OC [Example 82, N-[2-({[(2,6-dimethylphenyl)amino]carbonyl}amino)-4,5-dimethoxybenzoyl]-L-tryptophan trifluoroacetate]  9.41 µM
13. Cc1cccc(C)c1NC(=O)Nc1cc(F)c(F)cc1C(=O)N[C@@H](CC(=O)O)C(=O)O [Example 78, N-[2-({[(2,6-dimethylphenyl)amino]carbonyl}amino)-4,5-difluorobenzoyl]-L-aspartic acid]  9.11 µM
14. COc1cc(NC(=O)Nc2ccccc2Cl)c(C(=O)N[C@@H](Cc2c[nH]c3ccccc23)C(=O)O)cc1OC [Example 77, N-[2-({[(2-chlorophenyl)amino]carbonyl}amino)-4,5-dimethoxybenzoyl]-L-tryptophan trifluoroacetate]  9.05 µM
15. CC[C@H](C)[C@H](NC(=O)c1cc(F)c(F)cc1NC(=O)Nc1c(C)cccc1C)C(=O)O [Example 80, N-[2-({[(2,6-dimethylphenyl)amino]carbonyl}amino)-4,5-difluorobenzoyl]-L-isoleucine]  8.73 µM
16. Cc1cccc(Cl)c1NC(=O)Nc1cc2ccccc2cc1C(=O)N[C@@H](Cc1ccc(Br)cc1)C(=O)O [Example 91, 4-bromo-N-[3-({[(2-chloro-6-methylphenyl)amino]carbonyl}amino)-2-naphthoyl]-L-phenylalanine]  7.88 µM
17. Cc1cccc(Cl)c1NC(=O)Nc1cc(F)c(F)cc1C(=O)N[C@@H](CC(C)C)C(=O)O [Example 68, N-[2-({[(2-chloro-6-methylphenyl)amino]carbonyl}amino)-4,5-difluorobenzoyl]-L-leucine]  7.54 µM
18. Cc1cccc(Cl)c1NC(=O)Nc1cc(F)c(F)cc1C(=O)N[C@@H](CC(=O)O)C(=O)O [Example 66, N-[2-({[(2-chloro-6-methylphenyl)amino]carbonyl}amino)-4,5-difluorobenzoyl]-L-aspartic acid]  7.16 µM
19. Cc1cccc(Cl)c1NC(=O)Nc1cc(F)c(F)cc1C(=O)N[C@@H](Cc1c[nH]c2ccccc12)C(=O)O [Example 74, N-[2-({[(2-chloro-6-methylphenyl)amino]carbonyl}amino)-4,5-difluorobenzoyl]-L-tryptophan trifluoroacetate]  6.58 µM
20. CC[C@H](C)[C@H](NC(=O)c1cc(F)c(F)cc1NC(=O)Nc1c(C)cccc1Cl)C(=O)O [Example 70, N-[2-({[(2-chloro-6-methylphenyl)amino]carbonyl}amino)-4,5-difluorobenzoyl]-L-isoleucine]  5.97 µM
21. Cc1cccc(Cl)c1NC(=O)Nc1cc(Cl)ccc1C(=O)N[C@@H](CC(=O)O)C(=O)O [Example 88, N-[4-chloro-2-({[(2-chloro-6-methylphenyl)amino]carbonyl}amino)benzoyl]-L-aspartic acid]  5.2 µM
22. O=C(Nc1ccccc1Cl)Nc1cc(F)c(F)cc1C(=O)N[C@@H](Cc1c[nH]c2ccccc12)C(=O)O [Example 76, N-[2-({[(2-chlorophenyl)amino]carbonyl}amino)-4,5-difluorobenzoyl]-L-tryptophan trifluoroacetate]  3.74 µM
23. Cc1cccc(Cl)c1NC(=O)Nc1cc2ccccc2cc1C(=O)N[C@@H](CCCNC(=N)N)C(=O)O [Example 63, N-[3-({[(2-chloro-6-methylphenyl)amino]carbonyl}amino)-2-naphthoyl]-L-arginine]  2.73 µM
24. COc1cc(NC(=O)Nc2c(C)cccc2Cl)c(C(=O)N[C@@H](Cc2c[nH]c3ccccc23)C(=O)O)cc1OC [Example 75, N-[2-({[(2-chloro-6-methylphenyl)amino]carbonyl}amino)-4,5-dimethoxybenzoyl]-L-tryptophan trifluoroacetate]  0.76 µM
25. Cc1cccc(Cl)c1NC(=O)Nc1cc2ccccc2cc1C(=O)N[C@@H](CCC(=O)O)C(=O)O [Example 86, N-[3-({[(2-chloro-6-methylphenyl)amino]carbonyl}amino)-2-naphthoyl]-L-glutamic acid]  0.7 µM
26. CCc1cccc(CC)c1NC(=O)Nc1cc2ccccc2cc1C(=O)N[C@H](C(=O)O)C1CCCCC1 [Example 93, (2S)-cyclohexyl({[3-({[(2,6-diethylphenyl)amino]carbonyl}amino)-2-naphthalenyl]carbonyl}amino)ethanoic acid]  0.59 µM
27. Cc1cccc(Cl)c1NC(=O)Nc1cc2ccccc2cc1C(=O)NCC(=O)O [Example 85, N-[3-({[(2-chloro-6-methylphenyl)amino]carbonyl}amino)-2-naphthoyl]glycine]  0.57 µM
28. Cc1cccc(Cl)c1NC(=O)Nc1cc2ccccc2cc1C(=O)N[C@@H](Cc1cnc[nH]1)C(=O)O [Example 61, N-[3-({[(2-chloro-6-methylphenyl)amino]carbonyl}amino)-2-naphthoyl]-L-histidine trifluoroacetate]  0.45 µM
29. Cc1cccc(Cl)c1NC(=O)Nc1cc2ccccc2cc1C(=O)N[C@@H](Cc1ccc(O)cc1)C(=O)O [Example 64, N-[3-({[(2-chloro-6-methylphenyl)amino]carbonyl}amino)-2-naphthoyl]-L-tyrosine]  0.45 µM
30. Cc1cccc(Cl)c1NC(=O)Nc1cc2ccccc2cc1C(=O)N[C@@H](CC(=O)O)C(=O)O [Example 84, N-[3-({[(2-chloro-6-methylphenyl)amino]carbonyl}amino)-2-naphthoyl]-L-aspartic acid]  0.39 µM
31. Cc1cccc(Cl)c1NC(=O)Nc1cc2ccccc2cc1C(=O)N[C@@H](Cc1c[nH]c2ccccc12)C(=O)O [Example 65, N-[3-({[(2-chloro-6-methylphenyl)amino]carbonyl}amino)-2-naphthoyl]-L-tryptophan trifluoroacetate]  0.27 µM
32. Cc1cccc(Cl)c1NC(=O)Nc1cc2ccccc2cc1C(=O)N[C@@H](Cc1ccccc1)C(=O)O [Example 62, N-[3-({[(2-chloro-6-methylphenyl)amino]carbonyl}amino)-2-naphthoyl]-L-phenylalanine]  0.26 µM
